From patent publication US10894014B2, “Orodispersible tablet containing Estetrol” (ESTETRA SPRL, priority 2015, dated 2021)

Key:
[1] = Randomized, open-label, two-period, cross-over pharmacokinetic study, sublingual vs oral estetrol tablet; assay type: in vivo, healthy female volunteers; conditions: 10 mg estetrol sublingual vs oral tablet
Protocol: A randomized, open-label, two-period, cross-over, pharmacokinetic study is conducted to compare sublingual bioavailability of 10 mg estetrol administered in one 80 mg tablet with oral availability of estetrol contained in a 83 mg tablet containing 10 mg estetrol. These tablets are administered sublingually and orally to healthy female volunteers under fasting conditions.
Ten healthy female subjects are selected on the basis of the following criteria: age of 45-65 years (inclusive), nonsmokers or past smokers (at least 6 months before dosing), body-mass index (BMI)=18.5 to 30 kg/m^2 (inclusive at the time of the screening).
At the start of the first and the second period of the study, between 07:00 am and 07:28 am, 5 subjects receive a single dose of the sublingual formulation of estetrol by administering one estetrol tablet (tablet weight 80 mg; 10 mg estetrol) and 5 subjects receive a single oral dose of the oral estetrol formulation by administering one estetrol tablet (tablet weight 83 mg; 10 mg estetrol), ingested together with 200 ml water. […]
The estetrol concentration in the collected blood samples is determined by means of HPLC/MS/MS. The concentrations of glucuronided estetrol (D-ring) in the urine samples is also determined with the help of HPLC/MS/MS.

[2] = humans, cited from earlier work
estrogen receptors = conditions: in vitro; cited from earlier work
[3] = molecular target: T1, sex hormone binding globulin (SHBG) (Homo sapiens, UniProt P04278); conditions: in vitro; cited from earlier work
T1 sequence (P04278 30-402): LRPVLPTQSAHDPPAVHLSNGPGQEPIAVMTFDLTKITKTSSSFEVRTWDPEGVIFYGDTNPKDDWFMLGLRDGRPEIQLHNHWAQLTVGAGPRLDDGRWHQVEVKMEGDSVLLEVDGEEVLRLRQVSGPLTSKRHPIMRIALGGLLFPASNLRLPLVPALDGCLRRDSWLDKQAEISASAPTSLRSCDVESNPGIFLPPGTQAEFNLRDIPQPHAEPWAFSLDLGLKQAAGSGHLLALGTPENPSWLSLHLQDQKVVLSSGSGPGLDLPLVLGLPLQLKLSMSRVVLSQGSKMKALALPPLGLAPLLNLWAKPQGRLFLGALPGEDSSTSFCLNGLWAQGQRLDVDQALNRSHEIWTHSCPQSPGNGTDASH

production of SHBG = conditions: in vitro; cited from earlier work
[4] = tested on: vagina, uterus, body weight, bone mass, bone strength, hot flushes, ovulation; conditions: dose-dependent; cited from earlier work
DMBA mammary tumour = conditions: extent and dose level similar to tamoxifen and to ovariectomy; cited from earlier work
[5] = tested on: human breast cancer cells; conditions: in vitro; cited from earlier work

## C[C@]12CC[C@@H]3c4ccc(O)cc4CC[C@H]3[C@@H]1[C@@H](O)[C@@H](O)[C@@H]2O [estetrol, 1,3,5 (10)-estratrien-3,15α,16α,17β-tetrol]
[1]
  impact on a liver function parameter: less impact on a liver function parameter
[2]; oral
  oral bioavailability: high and dose-proportional
[2]
  terminal elimination half-life: about 28 hours
Estrogen receptors
  binding to estrogen receptors, selectivity: binds highly selective to the estrogen receptors with preference for the ERα form
[3]
  binding to SHBG: does not bind
Production of SHBG
  stimulation of production of SHBG: does not stimulate
[4]
  estrogenic effects in rat models: estrogenic effects on the vagina, the uterus (both myometrium and endometrium), body weight, bone mass, bone strength, hot flushes and on ovulation (inhibition)
DMBA mammary tumour
  tumour development: prevented tumour development
[5]
  effect in the presence of 17β-estradiol: anti-estrogenic effect
